# Like-named read-outs stand apart in the source and are kept apart here.
# Assays:
# Assay type in all cases: cell-based
# Staphylococcus aureus = assay: microbe, parasite or virus in culture; settings: for MIC: Staphylococcus aureus, read-out: MIC
# Enterococci = tested on: Enterococci
# Streptococci = assay: Broth microdilution MIC, Streptococci (Example 11, Table 7)
# Clostridium difficile = assay: Broth microdilution MIC, C. difficile, anaerobic, supplemented Brucella Broth (Example 11, Table 7); settings: C. difficile MMX 4381 ATCC 700057, toxinAB-negative
# S. epidermidis (CoNS) = assay: Broth microdilution MIC, S. epidermidis (CoNS) (Table 7)
# S. lugdenensis (CoNS) = assay: Broth microdilution MIC, S. lugdenensis (CoNS) (Table 7); settings: S. lugdenensis (CoNS) MMX 8724
# S. haemolyticus (CoNS) = assay: Broth microdilution MIC, S. haemolyticus (CoNS) (Table 7); settings: S. haemolyticus (CoNS) MMX 529 ATCC 29970
# S. hominis (CoNS) = assay: Broth microdilution MIC, S. hominis (CoNS) (Table 7); settings: S. hominis (CoNS) MMX 667 ATCC 27844
compound,measurement,setting,value
CC(=O)NC[C@H]1CN(c2ccc(N3CCOCC3)c(F)c2)C(=O)O1 [Linezolid],RV40 activity as compared to Comparator,"Staphylococcus aureus; MRSA strains (Table 5), […]",214 ×
same,MIC,"Staphylococcus aureus; ATCC 29213 / MSSA, S. aureus MMX 100 ATCC 29213, MSSA (quality control)",4 µg/mL
same,MIC,"Staphylococcus aureus; ATCC 33591 / MRSA, S. aureus MMX 5717 ATCC 33591, MRSA",1 µg/mL
same,MIC,"Staphylococcus aureus; ATCC BAA-1556 / MRSA, S. aureus MMX 4675 ATCC BAA-1556, MRSA",1.5 µg/mL
same,MIC,"Staphylococcus aureus; ATCC BAA-1756 / MRSA, S. aureus MMX 2011 ATCC BAA-1756, MRSA",2 µg/mL
same,MIC,"Staphylococcus aureus; MRSA, S. aureus MMX 2010, MRSA",3 µg/mL
same,MIC,"Staphylococcus aureus; MRSA, S. aureus MMX 3982, MRSA",3 µg/mL
same,MIC,"Staphylococcus aureus; MRSA, S. aureus MMX 5985, MRSA",2.5 µg/mL
same,MIC,"Staphylococcus aureus; MRSA, S. aureus MMX 5999, MRSA",1.5 µg/mL
same,MIC,"Staphylococcus aureus; MRSA, S. aureus MMX 7899, MRSA",1.5 µg/mL
same,MIC,"Staphylococcus aureus; MRSA, S. aureus MMX 7900, MRSA",2 µg/mL
same,MIC,"Staphylococcus aureus; MRSA, S. aureus MMX 7901, MRSA",2 µg/mL
same,MIC,"Staphylococcus aureus; MRSA, S. aureus MMX 7902, MRSA",2 µg/mL
same,MIC,"Staphylococcus aureus; MRSA, S. aureus MMX 7903, MRSA",1.5 µg/mL
same,MIC,"Staphylococcus aureus; MSSA, S. aureus MMX 2490, MSSA",1.5 µg/mL
same,MIC,"Staphylococcus aureus; MSSA, S. aureus MMX 7907, MSSA",3 µg/mL
same,MIC,"Staphylococcus aureus; MSSA, S. aureus MMX 7908, MSSA",2 µg/mL
same,MIC,"Staphylococcus aureus; S. aureus MMX 4665, hVISA",1.5 µg/mL
same,MIC,"Staphylococcus aureus; S. aureus MMX 5989, Mu3, hVISA",1.5 µg/mL
same,MIC,"Staphylococcus aureus; VISA, S. aureus MMX 1723, Mu50, VISA",1.25 µg/mL
same,MIC,"Staphylococcus aureus; VISA, S. aureus MMX 2124, VISA, DaptoNS",1.5 µg/mL
same,MIC,"Staphylococcus aureus; VISA, S. aureus MMX 4658, VISA",1.5 µg/mL
same,MIC,"Staphylococcus aureus; VISA, S. aureus MMX 4660, VISA",2.5 µg/mL
same,MIC,"Enterococci; E. faecalis MMX 101 ATCC 29212, VSE",2 µg/mL
same,MIC,"Enterococci; E. faecalis MMX 1086, VanA VRE",2 µg/mL
same,MIC,Enterococci; E. faecalis MMX 4176,4 µg/mL
same,MIC,"Enterococci; E. faecium MMX 173, VanB VRE",4 µg/mL
same,MIC,"Enterococci; E. faecium MMX 851, VanA VRE",2 µg/mL
same,MIC,Enterococci; E. faecium MMX 4204,2 µg/mL
same,MIC,Streptococci; S. agalactiae MMX 4088,1 µg/mL
same,MIC,"Streptococci; S. agalactiae MMX 4115, erm^R",1 µg/mL
same,MIC,Streptococci; S. anginosus (AGS) MMX 1201 ATCC 33397,0.5 µg/mL
same,MIC,Streptococci; S. constellatus (AGS) MMX 5677,0.5 µg/mL
same,MIC,Streptococci; S. dysgalactiae MMX 5121,1 µg/mL
same,MIC,Streptococci; S. dysgalactiae MMX 5123,1 µg/mL
same,MIC,Streptococci; S. dysgalactiae MMX 5124,1 µg/mL
same,MIC,Streptococci; S. mitis (MGS) MMX 5798,0.5 µg/mL
same,MIC,Streptococci; S. oralis (MGS) MMX 5821,1 µg/mL
same,MIC,"Streptococci; S. pneumoniae MMX 432, PRSP",1 µg/mL
same,MIC,Streptococci; S. pneumoniae MMX 747,1 µg/mL
same,MIC,"Streptococci; S. pneumoniae MMX 1195 ATCC 49619, PISP",1 µg/mL
same,MIC,Streptococci; S. pyogenes MMX 404 ATCC 19615,2 µg/mL
same,MIC,"Streptococci; S. pyogenes MMX 946, ermR",1 µg/mL
same,MIC,Streptococci; S. pyogenes MMX 8778,1 µg/mL
same,MIC,Clostridium difficile,1 µg/mL
same,MIC,"S. epidermidis (CoNS); S. epidermidis (CoNS) MMX 762, MRSE",2 µg/mL
same,MIC,"S. epidermidis (CoNS); S. epidermidis (CoNS) MMX 5145, MRSE",0.5 µg/mL
same,MIC,S. lugdenensis (CoNS),0.5 µg/mL
same,MIC,S. haemolyticus (CoNS),0.5 µg/mL
same,MIC,S. hominis (CoNS),1 µg/mL
